Source: patent publication US12617777B2, “GPR84 antagonists and uses thereof” (Liminal BioSciences Limited, priority 2021, dated 2026)

What was measured:
[1] = tested on: neutrophils; test: Neutrophil migration assay (embelin as chemotactic agent, ATPlite readout); assay type: cell-based; conditions: for IC50: Neutrophil, human neutrophils, embelin as chemotactic agent, read-out: Human Neutrophil migration inhibition IC50; for Human Neutrophil migration inhibition - fold potency to Control Compound: normalized to GPR84 antagonist Control Compound (average IC50 131 nM)
Description: Neutrophil migration assay. After isolation, neutrophils were resuspended in chemotaxis buffer (DMEM supplemented with 10 mM HEPES) at a concentration of 8.9×10^6 cells/ml. In a 96-well plate, 20 μl of compound solution in chemotaxis buffer is added to 180 μl of cell suspension. After incubation at 37° C. for 30 minutes, 75 μl of cell suspension is transferred in the upper chamber of a 5 μm pore size Corning HTS transwell. 235 μl of chemotaxis buffer containing the chemotactic agent (embelin) is added to the lower chamber of the transwell. After a 60-minute incubation time at 37° C. in 5%0 C02, the upper chamber of the transwell is removed and the plate is centrifuged at 1500 rpm for 6 minutes. Supermatant is removed and cells resuspended in 100 ul of PBS. ATP content was assessed using ATPlite Luminescence Assay System® according to manufacturer instructions (Perkin Elmer, Buckinghamshire, UK). Briefly, 50 μl of ATPlite buffer and 50 μl of lysis solution is added to the lower chamber of the Transwells. After incubation at room temperature, in the dark with constant agitation for 5 minutes, 150 μl of cell lysate is transferred in a 96 wells white plate and incubated for 10 minutes in the dark. Luminescence is read on a TECAN plate reader, Infinite M1000 (Tecan, Morrisville, NC).
The compound numbers correspond to the compound numbers in Table 1. […] Normalization of the results takes the donor's variation into account.

[2] = target: T1, human GPR84 receptor (Homo sapiens, UniProt Q9NQS5); test: Gαi biosensor BRET assay in HEK293 cells (antagonism of ZQ-16); assay type: cell-based; conditions: for IC50: HEK293 cells, antagonism of 200 nmol/L ZQ-16; for inhibition at 10 µM: HEK293, single concentration 10 μM (designated F); for inhibition at 2 µM: HEK293, single concentration 2 μM (designated A); for inhibition at 25 µM: HEK293, single concentration 25 μM (designated I)
T1 construct: host or cells: HEK293, transient transfection
Method in brief: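 Antagonist mode: test compound 5 min at 37° C, followed by ZQ-16 agonist (200 nmol/L, 5 min, room temperature), in HEK293 cells transfected with GPR84 plus Rluc8-tagged Gαi2, GFP10-Gγ2 and Gβ1. Readout as GFP10/Rluc8 emission ratio after 5 μmol/L coelenterazine 400A, net of Rluc8-only and vehicle signal.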

T1 sequence (Q9NQS5 whole entry): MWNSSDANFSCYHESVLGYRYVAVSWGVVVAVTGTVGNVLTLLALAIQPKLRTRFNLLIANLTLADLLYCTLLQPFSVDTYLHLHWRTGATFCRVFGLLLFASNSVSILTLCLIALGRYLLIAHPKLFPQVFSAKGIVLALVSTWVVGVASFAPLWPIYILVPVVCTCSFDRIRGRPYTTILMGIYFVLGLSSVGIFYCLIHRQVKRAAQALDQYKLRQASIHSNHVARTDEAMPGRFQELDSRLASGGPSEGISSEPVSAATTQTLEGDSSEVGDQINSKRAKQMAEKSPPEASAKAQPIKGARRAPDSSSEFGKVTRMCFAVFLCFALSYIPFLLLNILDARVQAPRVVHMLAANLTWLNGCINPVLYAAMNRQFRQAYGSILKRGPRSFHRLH

SMILES	IC50 [1] [nM]	Human Neutrophil migration inhibition - fold potency to Control Compound [1]	IC50 [2] [nM]	inhibition at 10 µM [2] [%]	inhibition at 2 µM [2] [%]	inhibition at 15 µM ([2]; HEK293, single concentration 15 μM (designated H)) [%]	inhibition at 25 µM [2] [%]	inhibition at 1 µM ([2]; HEK293, single concentration 1 μM (designated A°)) [%]
CC(C)c1cc(C#CC2CC2)ccc1-c1cn(CC2CCCCO2)nn1 (centres unmarked) [Compound I-88]	1000 to 3000	C (IC50≤0.5-fold relative to Control Compound)	1000 to 3000					
Cc1cc(C#CCn2cc(-c3ccc([N+](=O)[O-])cc3)nn2)ccc1-c1cn(CC2CCCCO2)nn1 (centres unmarked) [Compound I-454]	≤ 300	A (IC50 of >1.0-fold relative to Control Compound)	≤ 300	> 75				
Cc1cc(C#CCNc2ccccc2)ccc1-c1cn(C[C@@H]2CCCCO2)nn1 (stereo in doubt) [Compound I-144]	1000 to 3000	C (IC50≤0.5-fold relative to Control Compound)	1000 to 3000	≤ 25				
Cc1cc(N2CC(C)(CNc3ccccn3)C2)ccc1-c1cn(CC2CCCCO2)nn1 (centres unmarked) [Compound I-464]	≤ 300	C (IC50≤0.5-fold relative to Control Compound)	300 to 1000		> 75			
Cc1cc(C#CC2CC2)cnc1-c1cn(CC2CCCCO2)cn1 (centres unmarked) [Compound I-424]	≤ 300	A (IC50 of >1.0-fold relative to Control Compound)	1000 to 3000	> 75				
CN(C)c1cc(C#CCNc2ccccc2)ccc1-c1cn(CC2CC(C)(C)CO2)nn1 (centres unmarked) [Compound I-460]	≤ 300	A (IC50 of >1.0-fold relative to Control Compound)	300 to 1000	> 75				
Cc1cc(C#CC(C)(C)C)ccc1-c1cn(CC2CCCCO2)nn1 (centres unmarked) [Compound I-67]	300 to 1000	B (IC50 of >0.5-≤1.0-fold relative to Control Compound)	1000 to 3000					
Cc1cc(C#CCNCc2ccccc2)ccc1-c1cn(CC2CCCCO2)nn1 (centres unmarked) [Compound I-86]	300 to 1000	C (IC50≤0.5-fold relative to Control Compound)	300 to 1000					
Cc1cc(N2CCN([C@@H](C)c3ccccn3)CC2)ccc1-c1cn(C[C@H]2CCCCO2)nn1 [Compound I-612]	≤ 300	A (IC50 of >1.0-fold relative to Control Compound)	300 to 1000	> 75				
Cc1cc(C#CCN2CC(C)(C)C2)ccc1-c1cn(CC2CCCCO2)nn1 (centres unmarked) [Compound I-119]	300 to 1000	C (IC50≤0.5-fold relative to Control Compound)	1000 to 3000					
Cc1cc(C#CC(C)(C)O)ccc1-c1cn(CC2CCCCO2)nn1 (centres unmarked) [Compound I-79]	300 to 1000	C (IC50≤0.5-fold relative to Control Compound)	> 3000			> 75		
Cc1cc(N2CC(C)(N(C)Cc3ccccc3)C2)ccc1-c1cn(CC2CCCCO2)nn1 (centres unmarked) [Compound I-553]	≤ 300	B (IC50 of >0.5-≤1.0-fold relative to Control Compound)	300 to 1000	25 to 50				
Cc1cc(C#CCN2CCN(c3ccccc3)CC2)ccc1-c1cn(CC2CCCCO2)nn1 (centres unmarked) [Compound I-120]	≤ 300	B (IC50 of >0.5-≤1.0-fold relative to Control Compound)	≤ 300					
CC(C)Oc1cc(C#CC2CC(F)(F)C2)cnc1-c1cn(CC2OCC(C)(C)CO2)nn1 [Compound I-650]	≤ 300	A (IC50 of >1.0-fold relative to Control Compound)	300 to 1000		> 75			
CCc1cc(C#CCO)ccc1-c1cn(CC2OCC(C)(C)CO2)nn1 [Compound I-620]	≤ 300	A (IC50 of >1.0-fold relative to Control Compound)	≤ 300	> 75				
CCc1cc(C#CCNc2ccccc2)cnc1-c1cn(CC2CC(C)(C)CO2)nn1 (centres unmarked) [Compound I-474]	≤ 300	A (IC50 of >1.0-fold relative to Control Compound)	300 to 1000		> 75			

SMILES	IC50 [1] [nM]	Human Neutrophil migration inhibition - fold potency to Control Compound [1]	IC50 [2] [nM]	inhibition at 10 µM [2] [%]	inhibition at 2 µM [2] [%]	inhibition at 15 µM ([2]; HEK293, single concentration 15 μM (designated H)) [%]	inhibition at 25 µM [2] [%]	inhibition at 1 µM ([2]; HEK293, single concentration 1 μM (designated A°)) [%]
Cc1cc(N2CCN(Cc3ccccn3)CC2)ccc1-c1cn(CC2OCC3(CC3)CO2)nn1 [Compound I-637]	≤ 300	A (IC50 of >1.0-fold relative to Control Compound)	300 to 1000		> 75			
CO[C@@H](c1cn(C[C@H]2CCCCO2)nn1)c1cc(C#CC2CC2)ccc1C [Compound I-510]	≤ 300	B (IC50 of >0.5-≤1.0-fold relative to Control Compound)	300 to 1000		50 to 75			
Cc1cc(C#CCN2CC(C)(C)C2)ccc1-c1cn(CC2OCC(C)(C)CO2)nn1 [Compound I-634]	≤ 300	A (IC50 of >1.0-fold relative to Control Compound)	≤ 300	> 75				
Cc1cc(C#CCN2CCC(F)(F)CC2)ccc1-c1cn(CC2CCCCO2)nn1 (centres unmarked) [Compound I-118]	≤ 300	C (IC50≤0.5-fold relative to Control Compound)	> 3000	> 75				
Cc1cc(C#CC(C)C)ccc1-c1cn(CC2CCCCO2)nn1 (centres unmarked) [Compound I-66]	1000 to 3000	C (IC50≤0.5-fold relative to Control Compound)	> 3000					
Cc1ccc(C#CC2CC2)cc1-c1cn(CC2CCCCO2)nn1 (centres unmarked) [Compound I-65]	1000 to 3000	C (IC50≤0.5-fold relative to Control Compound)	1000 to 3000				> 75	
Cc1cc(N2CC(C)(NCc3ccccn3)C2)ccc1-c1cn(CC2CCCCO2)nn1 (centres unmarked) [Compound I-441]	≤ 300	A (IC50 of >1.0-fold relative to Control Compound)	1000 to 3000	50 to 75				
CN(C)c1cc(N2CC(C)(C)C2)ccc1-c1cn(CC2OCC(C)(C)CO2)nn1 [Compound I-585]	≤ 300	A (IC50 of >1.0-fold relative to Control Compound)	≤ 300	> 75				
Cc1ccc(C#CC2CC2)cc1-n1nc(CC2CCCCO2)oc1=O (centres unmarked) [Compound I-14]	≤ 300	A (IC50 of >1.0-fold relative to Control Compound)	1000 to 3000	> 75				
CO[C@H](c1cn(C[C@H]2CCCCO2)nn1)c1cc(C#CC2CC2)ccc1C [Compound I-511]	≤ 300	A (IC50 of >1.0-fold relative to Control Compound)	≤ 300		> 75			
CC(C)Oc1cc(C#CCN2CC(C)(C)C2)ccc1-c1cn(C[C@H]2CCCCO2)nn1 [Compound I-413]	≤ 300	B (IC50 of >0.5-≤1.0-fold relative to Control Compound)	300 to 1000		> 75			
Cc1cc(C#CC2CC2)cnc1-c1cn(C[C@H]2CCCCO2)nn1 [Compound I-245]	300 to 1000	C (IC50≤0.5-fold relative to Control Compound)	1000 to 3000	> 75				
Cc1ccc(C#CC2CC2)cc1-c1nnn(CC2CCCCO2)n1 (centres unmarked) [Compound I-7]	> 3000	C (IC50≤0.5-fold relative to Control Compound)	> 3000				> 75	
Cc1ccc(C#CC2CC2)cc1-n1nc(CC2CCCO2)oc1=O (centres unmarked) [Compound I-17]	≤ 300	B (IC50 of >0.5-≤1.0-fold relative to Control Compound)	300 to 1000	> 75				
Cc1cc(C#CCn2cc(-c3ccc(N(C)C)cc3)nn2)ccc1-c1cn(CC2CCCCO2)nn1 (centres unmarked) [Compound I-456]	≤ 300	A (IC50 of >1.0-fold relative to Control Compound)	≤ 300		> 75			
CN(C)c1cc(N2CC(C)(CO)C2)ccc1-c1cn(C[C@H]2CC(C)(C)CO2)nn1 (stereo in doubt) [Compound I-588]	≤ 300	A (IC50 of >1.0-fold relative to Control Compound)	≤ 300					> 75
